Data on 5 compounds can be found in ChEMBL document CHEMBL1201862, “PubChem BioAssay data set” (2004).

Broadly, the EC50 is the concentration giving half of the maximal effect. The term AC50 denotes the concentration giving half of the maximal activity seen.

Experiment [1] in a line: CCR5-tropic HIV-1 fusion blockers – cell-based, CCR5-tropic Env, dose response (AID 2279). In kind it is functional.
Experiment [2] has as its target G-protein coupled receptor 55 (Homo sapiens, UniProt Q9Y2T6). Description: blockers of GPR55 signalling, imaged – imaging, image-based, counter-screen for GPR35 antagonist project, SAR follow-up (AID 2397). The format is functional. On the technique in general: The purpose of a counterscreen is to sort out artefacts and off-target activity.
Experiment [3] addresses T1, Probable nicotinate-nucleotide adenylyltransferase (Staphylococcus aureus (strain N315), UniProt P65502). The format is functional, Staphylococcus aureus subsp. aureus N315.
Experiment [4] addresses T1, Probable nicotinate-nucleotide adenylyltransferase. In kind it is functional, Staphylococcus aureus subsp. aureus N315. The settings on record: read-out: IC50_Mean.
The next experiment concerns the target Exodeoxyribonuclease V (Escherichia coli (strain K12), UniProt P04993+P07648+P08394). Description: RecBCD inhibition via phage-restricted bacterial growth – absorbance, V66 E. coli, mutant T4 phage, counter-screen for AddAB inhibitor project, dose response (AID 492957). In kind it is functional, cell-based, Escherichia coli str. K-12 substr. MG1655.
The target of the next experiment is T2, Caspase-3 (Homo sapiens, UniProt P42574).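 Note: Dose-response selectivity test against caspase-3 for candidate inhibitors of sentrin-specific proteases (SENPs).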
T2 sequence (P42574 whole entry): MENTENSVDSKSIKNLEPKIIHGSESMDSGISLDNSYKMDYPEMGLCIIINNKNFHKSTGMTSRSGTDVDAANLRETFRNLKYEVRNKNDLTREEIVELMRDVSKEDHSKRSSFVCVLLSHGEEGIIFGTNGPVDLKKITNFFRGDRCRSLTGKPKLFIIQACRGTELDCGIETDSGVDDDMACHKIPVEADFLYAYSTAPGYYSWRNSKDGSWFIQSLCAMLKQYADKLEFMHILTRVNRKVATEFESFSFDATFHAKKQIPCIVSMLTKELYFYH
The format is functional.

The target of experiment [5] is T3, Sentrin-specific protease 7 (Homo sapiens, UniProt Q9BQF6).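 Note: Luminescence-based dose-response confirmation of ultra-high-throughput screening hits, measuring inhibition of SENP7.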
T3 sequence (Q9BQF6 whole entry): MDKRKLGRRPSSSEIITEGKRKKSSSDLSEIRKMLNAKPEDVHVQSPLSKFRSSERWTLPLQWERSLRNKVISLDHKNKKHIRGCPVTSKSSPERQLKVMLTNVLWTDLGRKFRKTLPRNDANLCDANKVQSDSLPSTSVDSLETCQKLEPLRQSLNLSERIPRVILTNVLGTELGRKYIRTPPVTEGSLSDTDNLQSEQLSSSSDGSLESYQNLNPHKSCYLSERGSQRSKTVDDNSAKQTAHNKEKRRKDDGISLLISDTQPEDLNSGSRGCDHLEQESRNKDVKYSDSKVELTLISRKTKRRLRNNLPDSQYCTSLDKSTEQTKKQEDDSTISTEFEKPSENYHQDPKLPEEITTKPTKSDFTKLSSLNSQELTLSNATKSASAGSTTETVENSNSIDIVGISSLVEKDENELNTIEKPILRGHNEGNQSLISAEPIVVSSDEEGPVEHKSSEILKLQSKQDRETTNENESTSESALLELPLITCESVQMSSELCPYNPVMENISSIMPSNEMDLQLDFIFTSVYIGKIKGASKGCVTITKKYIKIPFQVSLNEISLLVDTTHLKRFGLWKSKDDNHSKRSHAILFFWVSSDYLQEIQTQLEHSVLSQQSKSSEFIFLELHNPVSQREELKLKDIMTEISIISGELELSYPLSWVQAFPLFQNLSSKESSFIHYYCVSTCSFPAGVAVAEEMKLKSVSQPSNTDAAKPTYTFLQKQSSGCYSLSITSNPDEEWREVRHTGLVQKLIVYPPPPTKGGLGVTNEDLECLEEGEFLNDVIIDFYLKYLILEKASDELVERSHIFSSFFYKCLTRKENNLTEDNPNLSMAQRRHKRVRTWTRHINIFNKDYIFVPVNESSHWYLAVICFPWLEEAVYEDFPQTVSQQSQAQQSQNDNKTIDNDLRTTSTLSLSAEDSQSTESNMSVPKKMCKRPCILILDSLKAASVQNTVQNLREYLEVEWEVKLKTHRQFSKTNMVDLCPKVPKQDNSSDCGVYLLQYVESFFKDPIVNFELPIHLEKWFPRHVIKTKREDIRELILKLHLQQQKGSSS
The format is functional.

The target of experiment [6] is T4, Sentrin-specific protease 6 (Homo sapiens, UniProt Q9GZR1).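 Note: Luminescence-based dose-response confirmatory assay of SENP6 inhibition, following up an ultra-high-throughput screen.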
T4 sequence (Q9GZR1 whole entry): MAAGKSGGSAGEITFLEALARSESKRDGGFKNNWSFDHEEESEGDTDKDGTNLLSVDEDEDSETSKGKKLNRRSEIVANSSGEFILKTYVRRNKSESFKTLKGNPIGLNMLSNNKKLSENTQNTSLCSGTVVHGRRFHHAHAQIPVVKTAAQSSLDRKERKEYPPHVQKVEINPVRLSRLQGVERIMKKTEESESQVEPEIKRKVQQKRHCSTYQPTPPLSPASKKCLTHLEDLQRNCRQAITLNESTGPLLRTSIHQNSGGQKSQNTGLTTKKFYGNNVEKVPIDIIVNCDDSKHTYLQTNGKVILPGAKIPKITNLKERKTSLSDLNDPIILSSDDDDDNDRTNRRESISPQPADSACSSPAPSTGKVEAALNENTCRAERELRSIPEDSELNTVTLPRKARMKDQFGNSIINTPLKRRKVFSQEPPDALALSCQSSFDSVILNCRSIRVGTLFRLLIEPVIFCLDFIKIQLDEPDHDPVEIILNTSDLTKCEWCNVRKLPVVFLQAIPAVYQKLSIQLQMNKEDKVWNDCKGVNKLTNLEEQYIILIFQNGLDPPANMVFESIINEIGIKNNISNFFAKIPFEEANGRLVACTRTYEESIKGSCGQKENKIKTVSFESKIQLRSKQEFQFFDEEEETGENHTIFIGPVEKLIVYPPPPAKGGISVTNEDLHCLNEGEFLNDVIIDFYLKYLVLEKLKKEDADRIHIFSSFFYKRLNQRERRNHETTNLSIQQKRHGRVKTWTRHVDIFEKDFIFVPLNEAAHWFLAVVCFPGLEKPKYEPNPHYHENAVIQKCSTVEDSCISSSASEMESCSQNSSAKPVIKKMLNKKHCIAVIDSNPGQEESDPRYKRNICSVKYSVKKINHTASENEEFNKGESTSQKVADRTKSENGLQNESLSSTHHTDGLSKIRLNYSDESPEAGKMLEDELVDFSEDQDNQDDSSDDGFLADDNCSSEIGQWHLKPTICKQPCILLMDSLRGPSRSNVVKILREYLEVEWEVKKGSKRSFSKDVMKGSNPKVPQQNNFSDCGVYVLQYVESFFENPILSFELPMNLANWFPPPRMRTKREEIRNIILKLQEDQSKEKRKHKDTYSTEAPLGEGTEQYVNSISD
In kind it is functional.

Experiment [7] addresses T5, Sentrin-specific protease 8 (Homo sapiens, UniProt Q96LD8).
T5 sequence (Q96LD8 whole entry): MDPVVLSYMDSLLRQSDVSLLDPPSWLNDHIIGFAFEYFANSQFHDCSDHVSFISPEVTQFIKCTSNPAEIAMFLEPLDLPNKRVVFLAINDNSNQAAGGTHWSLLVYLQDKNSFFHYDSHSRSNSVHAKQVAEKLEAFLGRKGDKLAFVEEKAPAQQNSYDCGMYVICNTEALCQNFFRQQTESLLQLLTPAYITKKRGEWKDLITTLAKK
The format is functional.

A short description of experiment [8]: Counterscreen for AddAB inhibitors: absorbance-based bacterial cell-based high throughput dose response assay for inhibitors of bacterial viability. [Related pubchem assays (depositor defined):AID435030, AID449728, AID449731, AID488942, AID488955, AID488956]. In kind it is functional.
The target in experiment [9] is Mitochondrial peptide methionine sulfoxide reductase (Bos taurus, UniProt P54149). Briefly: Absorbance-based biochemical high throughput dose response assay for activators of Methionine sulfoxide reductase A (MsrA). The format is functional.
Another experiment concerns the target Genome polyprotein (Hepatitis C virus, UniProt Q2Q167). Description: disruption of hepatitis C core self-association – biochemical, TR-FRET, dose response (AID 2159).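 Note: blocks dimerization of HCV core protein measured by TR-FRET between tagged core106 pairs.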 Set-up: species or system Hepacivirus hominis. (In general: Time-resolved FRET reads energy transfer from a long-lived donor to a nearby acceptor.)
A short description of experiment [10]: viability of PTEN-deleted HCT116 cells – cell-based, HCT116 PTEN knockout, dose response (AID 1047).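 Note: HCT116 colon tumor cells with PTEN knocked out; cells exposed to compound for 60 hours before readout; potency for loss of cell viability measured by luminescence.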 In kind it is functional.
Experiment [11] can be described thus: viability of HCT116 lacking mutant beta-catenin – cell-based, human colon tumor, dose response (AID 1045).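 Note: HCT116 colon tumor cells with beta catenin knocked out; cells exposed to compound for 60 hours.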 In kind it is functional.
Experiment [12] can be described thus: restored growth of temperature-sensitive Burl-1 yeast – whole organism, S. cerevisiae, Burl-1 ts mutant, luminescence, counter-screen for SUMOylation pathway inhibitor project, dose response (AID 463199). The format is functional.
The target in experiment [13] is T6, Mu-type opioid receptor (Homo sapiens, UniProt P35372). Briefly: mu opioid receptor activators, image-based, SAR follow-up (AID 2352). The format is functional.
Experiment [14] has as its target T7, Delta-type opioid receptor (Homo sapiens, UniProt P41143). Briefly: DOR agonists, SAR follow-up, image-based (AID 2370). The format is functional.
For experiment [15], the target named is T8, Kappa-type opioid receptor (Homo sapiens, UniProt P41145). Description: kappa opioid receptor blockers, image-based, SAR follow-up (AID 2348). The format is functional.
The target in experiment [16] is T6, Mu-type opioid receptor. Briefly: mu opioid receptor blockers – image-based, SAR follow-up (AID 2420).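 Note: compounds added before stimulation of receptor with agonist DAMGO.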 In kind it is functional.
The target in experiment [17] is T8, Kappa-type opioid receptor. Description: kappa opioid receptor activation potency – imaging, image-based, SAR follow-up (AID 2359). The format is functional.
Experiment [18] concerns the target T7, Delta-type opioid receptor. Briefly: delta opioid receptor blockers – image-based, SAR follow-up (AID 2357). In kind it is functional.
The target of experiment [19] is T8, Kappa-type opioid receptor. Description: kappa opioid receptor blockers, cell-based, luminescence, beta-arrestin, SAR follow-up (AID 2285). The format is functional.
Experiment [20] in a line: cells. The format is functional, cell-based.
A short description of experiment [21]: cells. The format is functional, cell-based. The source holds these as a separate data set.
The target of experiment [22] is Lysine-specific demethylase 4C (Homo sapiens, UniProt Q9H3R0). Briefly: inhibition of JMJD2C H3K9me3 demethylation – biochemical, DELFIA europium, cherry-picked samples, dose response (AID 488835). The format is functional.
For the next experiment, the system named is HEK293. Briefly: EBV LMP1 TES2 canonical NF-kB signalling blockers – cell-based, HEK293, luciferase, cherry-pick, dose response (AID 588343). The format is functional. To be noted: Homo sapiens.
Another experiment has as its system INS1. Briefly: INS-1E survival protection against cytokine death – cell-based, luminescence, retest, dose response (AID 449756).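 Note: cell death triggered by IL-1 beta plus TNF-alpha plus IFN-gamma mixture; protective hits raise ATP signal compared with cytokine alone wells.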 The format is functional. To be noted: Rattus norvegicus.

Activity calls are given as the source filed them.
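Throughout, for IC50 Mean: confirmatory dose-response retesting of NadD inhibitor hits first found in an ultra-high-throughput screen.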

T8 sequence (P41145 whole entry): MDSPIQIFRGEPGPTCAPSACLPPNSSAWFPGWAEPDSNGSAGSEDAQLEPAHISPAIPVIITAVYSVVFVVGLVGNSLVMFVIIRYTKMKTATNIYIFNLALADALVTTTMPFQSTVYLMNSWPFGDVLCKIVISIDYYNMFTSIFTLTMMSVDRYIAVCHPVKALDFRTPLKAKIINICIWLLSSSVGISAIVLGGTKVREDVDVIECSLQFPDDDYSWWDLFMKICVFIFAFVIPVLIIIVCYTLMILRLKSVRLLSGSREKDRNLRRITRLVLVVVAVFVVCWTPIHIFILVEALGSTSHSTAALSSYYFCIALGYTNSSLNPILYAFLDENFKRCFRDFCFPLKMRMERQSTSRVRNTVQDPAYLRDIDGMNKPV
T1 sequence (P65502 whole entry): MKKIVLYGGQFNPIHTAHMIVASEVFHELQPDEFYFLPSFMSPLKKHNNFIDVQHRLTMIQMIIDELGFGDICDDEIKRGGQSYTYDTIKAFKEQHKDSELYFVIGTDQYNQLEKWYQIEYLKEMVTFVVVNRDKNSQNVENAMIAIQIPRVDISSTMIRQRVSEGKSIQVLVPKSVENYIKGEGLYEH
T7 sequence (P41143 whole entry): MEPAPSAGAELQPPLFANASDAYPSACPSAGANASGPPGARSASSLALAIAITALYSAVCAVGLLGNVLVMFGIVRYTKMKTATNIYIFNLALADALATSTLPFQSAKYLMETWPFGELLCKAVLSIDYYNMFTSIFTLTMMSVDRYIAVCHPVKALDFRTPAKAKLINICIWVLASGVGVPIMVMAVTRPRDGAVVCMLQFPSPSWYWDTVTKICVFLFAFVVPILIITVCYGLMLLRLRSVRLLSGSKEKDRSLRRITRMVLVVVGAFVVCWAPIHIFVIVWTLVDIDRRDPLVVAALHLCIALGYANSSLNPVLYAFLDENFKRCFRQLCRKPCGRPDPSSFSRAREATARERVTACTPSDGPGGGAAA
T6 sequence (P35372 whole entry): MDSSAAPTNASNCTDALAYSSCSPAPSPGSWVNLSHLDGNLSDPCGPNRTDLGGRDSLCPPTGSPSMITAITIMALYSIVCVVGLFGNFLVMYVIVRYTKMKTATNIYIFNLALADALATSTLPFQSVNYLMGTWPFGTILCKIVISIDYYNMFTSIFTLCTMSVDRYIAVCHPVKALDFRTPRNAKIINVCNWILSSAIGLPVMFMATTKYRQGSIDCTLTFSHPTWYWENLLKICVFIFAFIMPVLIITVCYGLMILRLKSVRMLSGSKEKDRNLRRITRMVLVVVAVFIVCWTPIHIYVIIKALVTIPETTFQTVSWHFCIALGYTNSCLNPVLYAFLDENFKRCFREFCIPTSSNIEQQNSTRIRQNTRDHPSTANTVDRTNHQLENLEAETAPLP
Chain of G-protein coupled receptor 55 (Q9Y2T6 whole entry): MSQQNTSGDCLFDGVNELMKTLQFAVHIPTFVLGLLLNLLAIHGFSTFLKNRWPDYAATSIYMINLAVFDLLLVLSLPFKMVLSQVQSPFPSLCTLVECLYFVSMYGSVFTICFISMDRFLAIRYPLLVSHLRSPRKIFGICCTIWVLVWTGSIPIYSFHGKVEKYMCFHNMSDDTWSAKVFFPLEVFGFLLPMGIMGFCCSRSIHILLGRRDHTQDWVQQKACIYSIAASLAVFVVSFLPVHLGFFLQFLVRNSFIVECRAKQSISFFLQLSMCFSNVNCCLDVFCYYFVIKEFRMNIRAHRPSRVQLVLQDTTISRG
Chain of Lysine-specific demethylase 4C (Q9H3R0 whole entry): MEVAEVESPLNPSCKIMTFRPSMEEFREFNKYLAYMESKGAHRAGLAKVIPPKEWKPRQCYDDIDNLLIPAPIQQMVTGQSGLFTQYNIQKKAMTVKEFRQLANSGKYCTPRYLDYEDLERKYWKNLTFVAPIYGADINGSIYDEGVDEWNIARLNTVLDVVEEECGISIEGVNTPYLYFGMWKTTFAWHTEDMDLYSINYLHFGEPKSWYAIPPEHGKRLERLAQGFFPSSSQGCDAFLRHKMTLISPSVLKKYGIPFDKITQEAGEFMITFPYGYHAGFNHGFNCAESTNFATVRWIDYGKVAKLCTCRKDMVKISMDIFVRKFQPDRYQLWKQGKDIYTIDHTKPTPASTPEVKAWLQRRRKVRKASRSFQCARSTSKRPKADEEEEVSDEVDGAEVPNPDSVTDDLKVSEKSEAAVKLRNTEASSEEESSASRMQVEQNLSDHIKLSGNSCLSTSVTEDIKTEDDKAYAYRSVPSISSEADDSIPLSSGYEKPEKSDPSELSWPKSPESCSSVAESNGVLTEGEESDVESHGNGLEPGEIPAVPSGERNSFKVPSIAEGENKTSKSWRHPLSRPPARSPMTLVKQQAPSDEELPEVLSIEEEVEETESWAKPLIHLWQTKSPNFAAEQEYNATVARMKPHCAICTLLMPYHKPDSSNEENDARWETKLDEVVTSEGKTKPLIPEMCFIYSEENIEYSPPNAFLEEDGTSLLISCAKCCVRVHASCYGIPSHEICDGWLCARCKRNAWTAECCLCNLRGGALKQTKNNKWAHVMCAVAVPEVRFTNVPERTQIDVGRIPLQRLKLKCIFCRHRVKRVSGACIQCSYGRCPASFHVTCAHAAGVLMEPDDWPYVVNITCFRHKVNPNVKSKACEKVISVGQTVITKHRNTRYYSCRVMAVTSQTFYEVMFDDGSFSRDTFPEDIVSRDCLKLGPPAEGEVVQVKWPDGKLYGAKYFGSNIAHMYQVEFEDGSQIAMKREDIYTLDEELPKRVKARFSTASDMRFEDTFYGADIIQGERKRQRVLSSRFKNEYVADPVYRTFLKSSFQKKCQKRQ
Chain of Genome polyprotein (Q2Q167 whole entry): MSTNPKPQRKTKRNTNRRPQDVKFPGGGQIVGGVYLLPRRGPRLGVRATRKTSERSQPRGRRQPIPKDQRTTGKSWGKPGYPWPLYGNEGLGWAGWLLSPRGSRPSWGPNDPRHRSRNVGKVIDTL
Chain of Mitochondrial peptide methionine sulfoxide reductase (P54149 whole entry): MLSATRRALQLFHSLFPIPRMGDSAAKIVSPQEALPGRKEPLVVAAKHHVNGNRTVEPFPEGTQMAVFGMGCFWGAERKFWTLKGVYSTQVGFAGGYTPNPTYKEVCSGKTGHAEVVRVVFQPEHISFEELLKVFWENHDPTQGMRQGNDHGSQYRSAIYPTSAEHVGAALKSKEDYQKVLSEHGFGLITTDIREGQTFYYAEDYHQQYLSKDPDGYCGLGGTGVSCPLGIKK

As to `CCC(Sc1nc2ccsc2c(=O)n1Cc1ccc(C(=O)O)cc1)C(=O)Nc1ccc(C)c(Cl)c1` (configuration not stated), the IC50 in [1] is 47.7 µM (active); in experiment [2], 14.9 µM (inactive); in experiment [3] it was 6.61 µM (active); in experiment [4] it was 38.6 µM (active).
Consider `O=C(COC(=O)c1ccc([N+](=O)[O-])s1)c1ccc[nH]1`, for which the IC50 was > 119 µM (inactive) on Exodeoxyribonuclease V; 10.2 µM (active) on Caspase-3; 18.4 µM (active) in experiment [5]; 6.52 µM (active) in experiment [6]; 5.37 µM (active) in experiment [7]; 104 µM (inactive) in experiment [8]. Further, in experiment [9], the EC50 is 15.8 µM (inactive).
For `O=C(N/N=C/C(Br)=C/c1ccccc1)c1[nH]nc2c1CCC2`, at Genome polyprotein, the IC50 is listed as > 49.8 µM (not active). In addition, the EC50 in experiment [10] and in experiment [11] was < 59 nM (active) each time. For the same compound, in [12], the half-maximal activity concentration (AC50) was 120 µM (active).
For `CC(=O)c1ccc(S(=O)(=O)NCc2ccc(C(=O)N(C)CC(=O)Nc3cccc(F)c3)cc2)cc1`, the EC50 (on Mu-type opioid receptor [13]; in [14]; in [17]) was > 32 µM (inactive) throughout. Besides, the IC50 in experiment [15] was > 32 µM (inactive); at Mu-type opioid receptor [16] it was > 32 µM (inactive); in experiment [18] it was > 32 µM (inactive); in [19] it was > 10 µM (inactive).
As for `COc1cccc(/C=N/Nc2nc3ccccc3[nH]2)c1O`, the EC50 in the experiment “cells [20]” is > 350 µM (not active); in the experiment “cells [21]”, 26.6 µM (active). Moreover, the AC50 is 8.63 µM (active) in experiment [22], 3.34 µM (active) in the experiment with HEK293 and 2.22 µM (active) in the experiment on INS1.
